Test systems include ACHN; HCT-116; Hs-578T; IGROV-1; LOX IMVI; M14; MDA-MB-231; Malme-3M; NCI-H23; NCI-H460; NCI/ADR-RES; OVCAR-3; PC-3; RPMI-8226; SF-295; SK-MEL-2; T47D; UACC-257; CCRF-CEM.
Assay in all cases: NCI-60 cell line screen, 48 h

The structures appear in SMILES notation.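 Grown in 96-well plates, cells were treated for 48 hours with each compound at five concentrations. Insufficient inhibition: endpoint recorded as highest concentration tested. GI50 = concentration required for 50% inhibition of growth.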 Active and inactive are the calls of the source. Rule as the data show it: active = GI50 up to about 1.1 µM and inactive = higher.

In the case of `O=C(CON1C(=O)c2ccccc2C1=O)c1ccccc1`, the GI50 was > 100 µM (inactive) with ACHN; 36.2 µM (inactive) with HCT-116; > 100 µM (inactive) in the assay on Hs-578T; > 100 µM (inactive) in the assay with IGROV-1; 35.6 µM (inactive) with LOX IMVI; 57.1 µM (inactive) in the assay with M14. In addition, the GI50 with MDA-MB-231 is > 100 µM (inactive); in the assay on Malme-3M it was 21.1 µM (inactive); in the assay on NCI-H23 it was > 100 µM (inactive); with NCI-H460, > 100 µM (inactive); with NCI/ADR-RES it was > 100 µM (inactive); in the assay on OVCAR-3, 49.9 µM (inactive). For the same compound, the GI50 with PC-3 is > 100 µM (inactive); in the assay on RPMI-8226, 18.6 µM (inactive); in the assay on SF-295, > 100 µM (inactive); in the assay on SK-MEL-2, > 100 µM (inactive); with T47D, 22.3 µM (inactive); with UACC-257, 34.8 µM (inactive).

As to `COc1cc2c(cc1O)CCN[C@@]21CS[C@H]2c3c(OC(C)=O)c(C)c4c(c3C(COC1=O)N1C2C2NC(Cc3cc(C)c(OC)c(O)c32)[C@@H]1O)OCO4` (some centres undefined), the GI50 in the assay with ACHN, in the assay on CCRF-CEM, with HCT-116, in the assay with Hs-578T, in the assay on IGROV-1 and with M14 was < 0.01 µM (active) throughout. Moreover, the GI50 with MDA-MB-231, in the assay with NCI-H23, with NCI-H460, in the assay with NCI/ADR-RES, with PC-3 and with RPMI-8226 was < 0.01 µM (active) each time. Besides, the GI50 in the assay with SF-295, with SK-MEL-2, in the assay on T47D and with UACC-257 was < 0.01 µM (active) each time.

As for `Cc1[nH]n(-c2nc(O)c(-c3ccccc3)c(=O)[nH]2)c(=O)c1CCO`, the GI50 in the assay with ACHN, in the assay on CCRF-CEM, with HCT-116, in the assay with Hs-578T, in the assay with IGROV-1 and with M14 was > 100 µM (inactive) in each case. Moreover, the GI50 in the assay with MDA-MB-231, in the assay with Malme-3M, in the assay with NCI-H23, with NCI-H460, with NCI/ADR-RES and with PC-3 was > 100 µM (inactive) in each case. The GI50 with RPMI-8226, in the assay with SF-295, in the assay with SK-MEL-2, in the assay on T47D and with UACC-257 was > 100 µM (inactive) throughout.

As for `CCCCCCCCCCCCCCCCCCOc1ccc(/C=C/C2=[N+](CCCl)CCO2)cc1`, the GI50 in the assay on ACHN is > 100 µM (inactive); in the assay on CCRF-CEM, > 100 µM (inactive); in the assay with HCT-116, > 100 µM (inactive); in the assay with Hs-578T, > 100 µM (inactive); in the assay with IGROV-1, 67.6 µM (inactive); in the assay with LOX IMVI it was > 100 µM (inactive). Also, the GI50 is > 100 µM (inactive) with M14; 41 µM (inactive) in the assay on MDA-MB-231; > 100 µM (inactive) in the assay with Malme-3M; > 100 µM (inactive) with NCI-H460; > 100 µM (inactive) in the assay on NCI/ADR-RES; > 100 µM (inactive) in the assay on OVCAR-3. Moreover, the GI50 in the assay on PC-3, in the assay on RPMI-8226, with SF-295, in the assay on SK-MEL-2, in the assay on T47D and with UACC-257 was > 100 µM (inactive) in each case.

Values taken from ChEMBL document CHEMBL1201862, “PubChem BioAssay data set” (2004).
